One experiment has as its target galectin-3 (Homo sapiens, UniProt P17931). The experiment in a line: Fluorescence anisotropy assay, affinity for galectin-3. Format: binding. The conditions noted are these: compound as inhibitor of the interaction between galectin and a fluorescein tagged saccharide probe; read-out: Gal-3 Kd. The method, then: (§1) The affinity of Example 1-39 for galectins were determined by a fluorescence anisotropy assay where the compound was used as an inhibitor of the interaction between galectin and a fluorescein tagged saccharide probe as described Sarme, P., Kahl-Knutsson, B., Huflejt, M., Nilsson, U. J., and Leffler H. (2004) Fluorescence polarization as an analytical tool to evaluate galectin-ligand interactions. Anal. Biochem. 334: 36-47, (Sarme et al., 2004) and Monovalent interactions of Galectin-1 By Salomonsson, Emma; Larumbe, Amaia; Tejler, Johan; Tullberg, Erik; Rydberg, Hanna; Sundin, Anders; Khabut, Areej; Frejd, Torbjorn; Lobsanov, Yuri D.; Rini, James M.; et al, From Biochemistry (2010), 49(44), 9518-9532, (Salomonsson et al., 2010).
In general terms: Fluorescence polarisation rises when a labelled molecule tumbles more slowly, as on binding a larger partner.

Another experiment deals with galectin-1 (Homo sapiens, UniProt P09382). Nature of the experiment: Fluorescence anisotropy assay, affinity for galectin-1. Format: binding. The following applies: compound as inhibitor of the interaction between galectin and a fluorescein tagged saccharide probe; read-out: Gal-1 Kd. The method, then: as §1
Sequence of galectin-1 (P09382 whole entry): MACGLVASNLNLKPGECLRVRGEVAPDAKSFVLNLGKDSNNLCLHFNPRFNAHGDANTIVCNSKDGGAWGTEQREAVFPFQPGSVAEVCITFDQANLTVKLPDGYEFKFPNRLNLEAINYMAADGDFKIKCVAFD

Sequence of galectin-3 (P17931 whole entry): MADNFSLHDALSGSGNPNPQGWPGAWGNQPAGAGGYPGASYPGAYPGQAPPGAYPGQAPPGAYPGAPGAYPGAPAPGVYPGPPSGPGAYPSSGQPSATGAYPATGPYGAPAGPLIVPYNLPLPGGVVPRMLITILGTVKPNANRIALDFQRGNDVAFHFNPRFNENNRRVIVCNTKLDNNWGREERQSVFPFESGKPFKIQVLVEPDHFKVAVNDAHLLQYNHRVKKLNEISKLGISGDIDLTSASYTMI

On to `COC1C(n2cc(-c3nc(Cl)cs3)nn2)[C@@H](O)C(CO)O[C@H]1c1ccnn1-c1cc(Cl)cnc1C(F)(F)F` (stereo partly drawn) [Example 32, 3-{5-{3-[4-(4-Chlorothiazol-2-yl)-1H-1,2,3-triazol-1-yl]-3-deoxy-2-O-methyl-β-D-galactopyranosyl}-1H-1,2-pyrazol-1-yl}-5-chloro-2-(trifluoromethyl)pyridine], for which the Kd (commonly the constant that tells how readily two partners part at equilibrium) on galectin-3 came to 650 nM; on galectin-1 it was 50 nM.
For the compound `COC1C(n2cc(-c3nc(Cl)cs3)nn2)[C@@H](O)C(CO)O[C@H]1c1ccnn1-c1cc(Cl)c(Cl)cc1C(F)(F)F` (stereo partly drawn) [Example 21, 1-{5-{3-[4-(4-Chlorothiazol-2-yl)-1H-1,2,3-triazol-1-yl]-3-deoxy-2-O-methyl-β-D-galactopyranosyl}-1H-1,2-pyrazol-1-yl}-4,5-dichloro-2-(trifluoromethyl)benzene], the Kd amounted to 1100 nM at galectin-3 and 35 nM on galectin-1.
In the same order, the values of `COC1C(n2cc(-c3nc(Cl)cs3)nn2)[C@@H](O)C(CO)O[C@H]1c1cc(C)nn1-c1cc(Cl)ccc1C(F)(F)F` (stereo partly drawn) [Example 13, 1-{5-{3-[4-(4-Chlorothiazol-2-yl)-1H-1,2,3-triazol-1-yl]-3-deoxy-2-O-methyl-β-D-galactopyranosyl}-3-methyl-1H-1,2-pyrazol-1-yl}-5-chloro-2-(trifluoromethyl)benzene] are 290 nM and 36 nM.
Take `OCC1O[C@@H](c2ccnn2-c2cc(Cl)ccc2C(F)(F)F)C(O)C(n2cc(-c3nccs3)nn2)[C@H]1O` (stereo partly drawn) [Example 5, 5-Chloro-1-{5-{3-deoxy-3-[4-(2-thiazolyl)-1H-1,2,3-triazol-1-yl]-β-D-galactopyranosyl}-1H-1,2-pyrazol-1-yl}-2-(trifluoromethyl)benzene]: the figures for the Kd at galectin-3 and on galectin-1 were 4830 nM and 210 nM, respectively.
In the same order, the values of `COC1C(n2cc(-c3nc(Cl)cs3)nn2)[C@@H](O)C(CO)O[C@H]1c1ccnn1-c1ccc2nc(C)sc2c1` (stereo partly drawn) [Example 16, 1-{5-{3-[4-(4-Chlorothiazol-2-yl)-1H-1,2,3-triazol-1-yl]-3-deoxy-2-O-methyl-β-D-galactopyranosyl}-1H-1,2-pyrazol-1-yl}-2-methylbenzothiazole] are 1500 nM and 38 nM.
With `CCOC(=O)c1cc([C@@H]2OC(CO)[C@H](O)C(n3cc(-c4nc(Cl)cs4)nn3)C2OC)n(-c2cc(Cl)ccc2C(F)(F)F)n1` (stereo partly drawn) [Example 17, 1-{5-{3-[4-(4-Chlorothiazol-2-yl)-1H-1,2,3-triazol-1-yl]-3-deoxy-2-O-methyl-β-D-galactopyranosyl}-3-ethoxycarbonyl-1H-1,2-pyrazol-1-yl}-5-chloro-2-(trifluoromethyl)benzene], the Kd at galectin-3 was 880 nM; at galectin-1, 240 nM.
For `COC1C(n2cc(-c3nc(Cl)cs3)nn2)[C@@H](O)C(CO)O[C@H]1c1cc(C(N)=O)nn1-c1cc(Cl)ccc1C(F)(F)F` (stereo partly drawn) [Example 39, 1-{3-Aminocarbonyl-5-{3-[4-(4-chlorothiazol-2-yl)-1H-1,2,3-triazol-1-yl]-3-deoxy-2-O-methyl-β-D-galactopyranosyl}-1H-1,2-pyrazol-1-yl}-5-chloro-2-(trifluoromethyl)benzene], the Kd amounted to 320 nM on galectin-3 and 200 nM on galectin-1.
In the same order, the values of `COC1C(n2cc(-c3nc(Cl)cs3)nn2)[C@@H](O)C(CO)O[C@H]1c1ccnn1-c1cc(Br)ccc1C(F)(F)F` (stereo partly drawn) [Example 20, 5-Bromo-1-{5-{3-[4-(4-chlorothiazol-2-yl)-1H-1,2,3-triazol-1-yl]-3-deoxy-2-O-methyl-β-D-galactopyranosyl}-1H-1,2-pyrazol-1-yl}-2-(trifluoromethyl)benzene] are 410 nM and 31 nM.
As to `OCC1O[C@@H](c2ccnn2-c2cc(Br)c(F)cc2C(F)(F)F)C(O)[C@@H](n2cc(-c3nc(Cl)cs3)nn2)[C@H]1O` (stereo partly drawn) [Example 24, 5-Bromo-1-{5-{3-[4-(4-chlorothiazol-2-yl)-1H-1,2,3-triazol-1-yl]-3-deoxy-β-D-galactopyranosyl}-1H-1,2-pyrazol-1-yl}-4-fluoro-2-(trifluoromethyl)benzene], the Kd was 200 nM on galectin-3 and 36 nM on galectin-1.
On to `COC1C(n2cc(-c3nc(Cl)cs3)nn2)[C@@H](O)C(CO)O[C@H]1c1ccnn1-c1cc(Cl)c(F)cc1C(F)(F)F` (stereo partly drawn) [Example 22, 1-{5-{3-[4-(4-Chlorothiazol-2-yl)-1H-1,2,3-triazol-1-yl]-3-deoxy-2-O-methyl-β-D-galactopyranosyl}-1H-1,2-pyrazol-1-yl}-5-chloro-4-fluoro-2-(trifluoromethyl)benzene], for which the Kd at galectin-3 worked out at 850 nM; at galectin-1, 43 nM.
In the same order, the values of `C=C(C)c1cc([C@@H]2OC(CO)[C@H](O)C(n3cc(-c4nc(Cl)cs4)nn3)C2OC)n(-c2cc(Cl)ccc2C(F)(F)F)n1` (stereo partly drawn) [Example 27, 1-{5-{3-[4-(4-Chlorothiazol-2-yl)-1H-1,2,3-triazol-1-yl]-3-deoxy-2-O-methyl-β-D-galactopyranosyl}-3-(1-methylethenyl)-1H-1,2-pyrazol-1-yl}-5-chloro-2-(trifluoromethyl)benzene] are 1200 nM and 540 nM.
In the case of `C=Cc1cc([C@@H]2OC(CO)[C@H](O)C(n3cc(-c4nc(Cl)cs4)nn3)C2OC)n(-c2cc(Cl)ccc2C(F)(F)F)n1` (stereo partly drawn) [Example 29, 1-{5-{3-[4-(4-Chlorothiazol-2-yl)-1H-1,2,3-triazol-1-yl]-3-deoxy-2-O-methyl-β-D-galactopyranosyl}-3-ethenyl-1H-1,2-pyrazol-1-yl}-5-chloro-2-(trifluoromethyl)benzene], the figures for the Kd at galectin-3 and on galectin-1 were 480 nM and 190 nM, respectively.
For `Nc1nc(-c2cn(C3C(O)[C@H](c4ccnn4-c4cc(Cl)ccc4C(F)(F)F)OC(CO)[C@@H]3O)nn2)cs1` (stereo partly drawn) [Example 6, 1-{5-{3-[4-(2-Aminothiazol-4-yl)-1H-1,2,3-triazol-1-yl]-3-deoxy-β-D-galactopyranosyl}-1H-1,2-pyrazol-1-yl}-5-chloro-2-(trifluoromethyl)benzene] the same measures were 10800 nM and 120 nM.
For the compound `COC1C(n2cc(-c3csc(O)n3)nn2)[C@@H](O)C(CO)O[C@H]1c1ccnn1-c1cc(Br)c(F)cc1C(F)(F)F` (stereo partly drawn) [Example 37, 5-Bromo-1-{5-{3-deoxy-3-[4-(2-hydroxythiazol-4-yl)-1H-1,2,3-triazol-1-yl]-2-O-methyl-β-D-galactopyranosyl}-1H-1,2-pyrazol-1-yl}-4-fluoro-2-(trifluoromethyl)benzene], the Kd was 4700 nM at galectin-3 and 17 nM on galectin-1.
For the compound `OCC1O[C@@H](c2ccnn2-c2cc(Br)ccc2C(F)(F)F)C(O)C(n2cc(-c3nc(Cl)cs3)nn2)[C@H]1O` (stereo partly drawn) [Example 19, 5-Bromo-1-{5-{3-[4-(4-chlorothiazol-2-yl)-1H-1,2,3-triazol-1-yl]-3-deoxy-β-D-galactopyranosyl}-1H-1,2-pyrazol-1-yl}-2-(trifluoromethyl)benzene], the results for the dissociation constant (Kd) at galectin-3 and on galectin-1 were 280 nM and 43 nM, respectively.
In the same order, the values of `COC1C(n2cc(-c3ncc(Cl)s3)nn2)[C@@H](O)C(CO)O[C@H]1c1ccnn1-c1cc(Cl)ccc1C(F)(F)F` (stereo partly drawn) [Example 12, 1-{5-{3-[4-(5-Chlorothiazol-2-yl)-1H-1,2,3-triazol-1-yl]-3-deoxy-2-O-methyl-β-D-galactopyranosyl}-1H-1,2-pyrazol-1-yl}-5-chloro-2-(trifluoromethyl)benzene] are 390 nM and 24 nM.
For `COC1C(n2cc(-c3nc(Cl)cs3)nn2)[C@@H](O)C(CO)O[C@H]1c1cc(Br)nn1-c1cc(Cl)ccc1C(F)(F)F` (stereo partly drawn) [Example 26, 1-{3-Bromo-5-{3-[4-(4-chlorothiazol-2-yl)-1H-1,2,3-triazol-1-yl]-3-deoxy-2-O-methyl-β-D-galactopyranosyl}-1H-1,2-pyrazol-1-yl}-5-chloro-2-(trifluoromethyl)benzene] the same measures were 750 nM and 66 nM.
In the case of `COC1C(n2cc(-c3ncc(C)s3)nn2)[C@@H](O)C(CO)O[C@H]1c1ccnn1-c1cc(Cl)ccc1C(F)(F)F` (stereo partly drawn) [Example 3, 5-Chloro-1-{5-{3-deoxy-3-[4-(5-methylthiazol-2-yl)-1H-1,2,3-triazol-1-yl]-2-O-methyl-β-D-galactopyranosyl}-1H-1,2-pyrazol-1-yl}-2-(trifluoromethyl)benzene], the Kd at galectin-3 is 440 nM; at galectin-1, 470 nM.
In the same order, the values of `COC1C(n2cc(-c3nccs3)nn2)[C@@H](O)C(CO)O[C@H]1c1cc(C)nn1-c1cc(Cl)ccc1C(F)(F)F` (stereo partly drawn) [Example 14, 5-Chloro-1-{5-{3-deoxy-2-O-methyl-3-[4-(2-thiazolyl)-1H-1,2,3-triazol-1-yl]-β-D-galactopyranosyl}-3-methyl-1H-1,2-pyrazol-1-yl}-2-(trifluoromethyl)benzene] are 5200 nM and 150 nM.
For `OCC1O[C@@H](c2ccnn2-c2cc(Cl)ccc2C(F)(F)F)C(O)C(n2cc(-c3csc(O)n3)nn2)[C@H]1O` (stereo partly drawn) [Example 7, 5-Chloro-1-{5-{3-deoxy-3-[4-(2-hydroxythiazol-4-yl)-1H-1,2,3-triazol-1-yl]-β-D-galactopyranosyl}-1H-1,2-pyrazol-1-yl}-2-(trifluoromethyl)benzene] the same measures were 5830 nM and 29 nM.
Regarding `COC1C(n2cc(-c3csc(O)n3)nn2)[C@@H](O)C(CO)O[C@H]1c1ccnn1-c1cc(Cl)ccc1C(F)(F)F` (stereo partly drawn) [Example 35, 5-Chloro-1-{5-{3-deoxy-3-[4-(2-hydroxythiazol-4-yl)-1H-1,2,3-triazol-1-yl]-2-O-methyl-β-D-galactopyranosyl}-1H-1,2-pyrazol-1-yl}-2-(trifluoromethyl)benzene], the Kd was determined as 4200 nM at galectin-3 and 31 nM on galectin-1.

These data come from patent US20240132531A1, “NOVEL GALACTOSIDE INHIBITOR OF GALECTINS” (GALECTO BIOTECH AB, priority 2020, published 2024).
